From ChEMBL document CHEMBL1201862, “PubChem BioAssay data set” (2004)
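Each compound was tested at five concentrations against cells in 96-well plates for 48 hours. GI50: concentration for 50% inhibition of growth.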 Activity calls are given as the source filed them. Cut-off read from the data, not from the text of the source: active = GI50 up to about 1.1 µM and inactive = higher.

What was measured:
Assay in all cases: DTP human tumour cell line panel, 48 h
OVCAR-3 = test system: OVCAR-3
HOP-92 = test system: HOP-92
EKVX = test system: EKVX
SF-268 = test system: SF-268
Hs-578T = test system: Hs-578T
KM12 = test system: KM12
NCI-H23 = test system: NCI-H23
SK-MEL-28 = test system: SK-MEL-28
K562 = test system: K562
SNB-19 = test system: SNB-19
786-0 = test system: 786-0
M14 = test system: M14
UACC-257 = test system: UACC-257
HCT-15 = test system: HCT-15
BT-549 = test system: BT-549
CAKI-1 = test system: CAKI-1
HL-60 = test system: HL-60
NCI-H226 = test system: NCI-H226
HCC 2998 = test system: HCC 2998

SMILES	GI50 (OVCAR-3)	GI50 (HOP-92)	GI50 (EKVX)	GI50 (SF-268)	GI50 (Hs-578T)	GI50 (KM12)	GI50 (NCI-H23)	GI50 (SK-MEL-28)	GI50 (K562)	GI50 (SNB-19)	GI50 (786-0)	GI50 (M14)	GI50 (UACC-257)	GI50 (HCT-15)	GI50 (BT-549)	GI50 (CAKI-1)	GI50 (HL-60)	GI50 (NCI-H226)	GI50 (HCC 2998)
O=S(=O)(O)c1ccc(/N=N\c2c(O)ccc3cc(Br)ccc23)cc1	> 100 µM (inactive)	> 100 µM (inactive)	> 100 µM (inactive)	> 100 µM (inactive)	> 100 µM (inactive)	> 100 µM (inactive)	> 100 µM (inactive)	> 100 µM (inactive)	> 10 µM (inactive)	> 100 µM (inactive)	> 100 µM (inactive)	> 100 µM (inactive)	> 100 µM (inactive)	> 100 µM	> 100 µM (inactive)	> 100 µM (inactive)			
Cc1ccc(S(=O)(=O)NC(=O)NCC(N)=O)cc1		> 100 µM (inactive)		> 100 µM (inactive)	> 100 µM (inactive)	> 100 µM (inactive)	> 100 µM (inactive)	> 100 µM (inactive)	> 100 µM (inactive)	> 100 µM (inactive)	> 100 µM (inactive)	> 100 µM (inactive)	> 100 µM (inactive)	> 100 µM	> 100 µM (inactive)		> 100 µM (inactive)		
Nc1ccc2nc3n(c(=O)c2c1)CCCCC3	> 100 µM (inactive)	> 100 µM (inactive)	> 100 µM (inactive)	> 100 µM (inactive)	> 100 µM (inactive)	> 100 µM (inactive)	> 100 µM (inactive)	> 100 µM (inactive)	> 100 µM (inactive)		> 100 µM (inactive)	> 100 µM (inactive)	> 100 µM (inactive)	> 100 µM	89.9 µM (inactive)	> 100 µM (inactive)	> 100 µM (inactive)	> 100 µM (inactive)	
Cc1c(CCCl)c(N=[N+]=[N-])n2c(nc3ccccc32)c1C#N	1.39 µM (inactive)	1.25 µM (inactive)	1.87 µM (inactive)	2.22 µM (inactive)	0.986 µM (active)	1.66 µM (inactive)	1.41 µM (inactive)	1.58 µM (inactive)	0.29 µM (active)	2.77 µM (inactive)	0.601 µM (active)	1.25 µM (inactive)	1.6 µM (inactive)	1.3 µM	0.867 µM (active)	1.39 µM (inactive)	0.348 µM (active)	1.82 µM (inactive)	
CCC1c2[nH]c3ccccc3c2C[C@H]2C(=O)NC(COC(C)(C)C)C(=O)N12 (some centres not stated)	32 µM (inactive)	21.2 µM (inactive)	45.2 µM (inactive)	67.3 µM (inactive)	25.8 µM (inactive)	27.9 µM (inactive)	32.9 µM (inactive)	86.3 µM (inactive)	39.4 µM (inactive)	49.1 µM (inactive)	61.2 µM (inactive)	30.1 µM (inactive)	25.2 µM (inactive)	48 µM	34 µM (inactive)	44.9 µM (inactive)	21.3 µM (inactive)	> 100 µM (inactive)	
CNc1nc(OC)c2c(n1)n(C)c[n+]2C [HETEROMINE B]	62.7 µM (inactive)	41.2 µM (inactive)	> 100 µM (inactive)	> 100 µM (inactive)	31.6 µM (inactive)	> 100 µM (inactive)	> 100 µM (inactive)	> 100 µM (inactive)	> 100 µM (inactive)	> 100 µM (inactive)	> 100 µM (inactive)	> 100 µM (inactive)	> 100 µM (inactive)	> 100 µM	> 100 µM (inactive)	> 100 µM (inactive)	> 100 µM (inactive)	> 100 µM (inactive)	
O=C(c1cccs1)N1CCCN(C(=O)c2cccs2)C1=S	> 100 µM (inactive)		52.2 µM (inactive)	> 100 µM (inactive)	> 100 µM (inactive)	> 100 µM (inactive)	> 100 µM (inactive)	> 100 µM (inactive)	> 100 µM (inactive)	> 100 µM (inactive)	> 100 µM (inactive)	> 100 µM (inactive)	> 100 µM (inactive)	> 100 µM	> 100 µM (inactive)	> 100 µM (inactive)	> 100 µM (inactive)	> 100 µM (inactive)	
c1ccc(COc2ccc(C[P+](c3ccccc3)(c3ccccc3)c3ccccc3)cc2)cc1	0.146 µM (active)	0.153 µM (active)	0.233 µM (active)	0.261 µM (active)		0.191 µM (active)	0.2 µM (active)	0.337 µM (active)	0.0556 µM (active)	0.354 µM (active)	0.371 µM (active)	0.366 µM (active)	0.269 µM (active)	2.82 µM	0.139 µM (active)	6.79 µM (inactive)	0.0682 µM (active)	0.504 µM (active)	0.16 µM (active)
[N-]=[N+]=CC(=O)COC(=O)c1ccccc1	> 100 µM (inactive)	78 µM (inactive)	> 100 µM (inactive)	> 100 µM (inactive)		> 100 µM (inactive)	> 100 µM (inactive)	> 100 µM (inactive)	> 100 µM (inactive)	> 100 µM (inactive)	> 100 µM (inactive)	> 100 µM (inactive)	> 100 µM (inactive)	> 100 µM	> 100 µM (inactive)	> 100 µM (inactive)	> 100 µM (inactive)	> 100 µM (inactive)	> 100 µM (inactive)
CC(/C=C/C(O)=C1/C(=O)CNC1=O)=C\[C@@H](C)[C@H]1O[C@@]2(C)O[C@H](C(=O)[C@@H]3O[C@@]32C)[C@@H]1C	18.9 µM (inactive)		17.7 µM (inactive)	21.1 µM (inactive)	24.9 µM (inactive)	20 µM (inactive)	23.5 µM (inactive)	17.6 µM (inactive)	19.8 µM (inactive)	22.9 µM (inactive)	16.7 µM (inactive)	31.8 µM (inactive)	15.3 µM (inactive)	18.4 µM	15.8 µM (inactive)	19.4 µM (inactive)	11.7 µM (inactive)	21.2 µM (inactive)	
O=C(O)/C(Cc1c[nH]nn1)=N\O	> 100 µM (inactive)	> 100 µM (inactive)	> 100 µM (inactive)	> 100 µM (inactive)	> 100 µM (inactive)	> 100 µM (inactive)	> 100 µM (inactive)	> 100 µM (inactive)	> 100 µM (inactive)	> 100 µM (inactive)	> 100 µM (inactive)	> 100 µM (inactive)	> 100 µM (inactive)	> 100 µM	> 100 µM (inactive)	> 100 µM (inactive)	> 100 µM (inactive)	> 100 µM (inactive)	
COc1ccc2cc(C(=O)CCC(=O)O)ccc2c1	> 100 µM (inactive)	> 100 µM (inactive)	> 100 µM (inactive)	> 100 µM (inactive)	> 100 µM (inactive)	> 100 µM (inactive)	> 100 µM (inactive)	> 100 µM (inactive)	> 100 µM (inactive)	> 100 µM (inactive)	22.4 µM (inactive)	> 100 µM (inactive)	> 100 µM (inactive)	> 100 µM	> 100 µM (inactive)	> 100 µM (inactive)	> 100 µM (inactive)	> 100 µM (inactive)	
